# Data from article PMC7024221, “The Application of Reversible Intramolecular Sulfonamide Ligation to Modulate Reactivity in Organometallic Ruthenium(II) Diamine Complexes” (Molecules, 2020).
# Entries after “also recorded” stand apart in the source; their conditions may differ. Read-outs that look alike come from different tables or passages of the source. Marks after values point to notes of the source that are not given here.
# Columns and labels:
# [1] = cited from earlier work
# [2] = pH titration by 1H/19F NMR of open and chelate forms (apparent pKa); type: physicochemical; conditions: 2.46 mM complex, D2O, 0.1 M NaCl; for Apparent pKa: Henderson-Hasselbalch fit of % open form versus pD
# Method: The ability of the tethered sulfonamide functionality to reversibly ligate to the ruthenium atom in a pH-dependent manner, forming an intramolecular chelate, was examined by recording ^1H NMR spectra of 1–5 (and ^19F NMR spectra for 2–5) (2.46 mM complex, D2O, […], 0.1 M NaCl) as a function of pH. Within these spectra two unique sets of signals were observed, the relative proportion of these being pH-dependent, that were assigned to the open and chelate forms of the complexes (Figures S12–S15). Plotting the percentage of open form of the complex, calculated from the ratio of selected ligand signals corresponding to the open and chelate forms of the complexes, versus pD yielded sigmoidal curves in each case and apparent pKa values for 1–5 (Table 1) were determined by fitting of the Henderson-Hasselbalch equation to the data (Figure 7 and Figure 8).
# pH titrations of 1–6 and [Ru(η^6-C6H5CH2CH2NHTr)(C2O4)(H2O)] were conducted by adjustment of the pD of solutions of the complexes (2.46 mM, 295 K, 0.1 M NaCl) in D2O through addition of 1–5 µL aliquots of NaOD (3.6 wt.%) and DCl (1.8 wt.%) solutions in D2O. Following pD adjustment the solutions were left to equilibrate (for 1–6 this was up to 36 h) then the ^1H and ^19F spectra of each were recorded. The ratio of selected ligand signals (for example –CH3 for 1, arene resonances for 2, –CF3 for 3–5) corresponding to the open- and chelate-forms of the complex were determined for each pD value and enabled a plot of % open-form versus pD. pKa values were calculated through fitting of the Henderson-Hasselbalch equation to the data.
# [3] = design: method as in doi:10.1021/acs.organomet.7b00868; conditions: R = Ms, Tf; reported previously; cited from earlier work
# [4] = Solution stability (NaCl, arene loss on standing of NMR solution); type: physicochemical; conditions: standing for extended periods of time (>24 h)
# Method: A total of six half-sandwich ruthenium(II) arene complexes were synthesized for evaluation in this study (Figure 2). [Ru(η^6-C6H5CH2CH2NHR)(en)(Cl)]PF6 (R = Ms (1), tresyl (Tr) (2), Tf (3) or acetyl (6)) and [Ru(η^6-C6H5(CH2)3CH2NHTf)(en)(Cl)]PF6 (5) were prepared via reaction of the respective [RuCl2(η^6-C6H5(CH2)nCH2NHR)]2 (R = acetyl, Ms, Tf or Tr) complex with ethylenediamine followed by the addition of NH4PF6 then crystallization of the product by concentration of the methanol solution or via vapor diffusion with diethyl ether. [Ru(η^6:κ^1-C6H5(CH2)2CH2NTf)(en)]PF6 (4) was prepared via the reaction of [RuCl2(η^6-C6H5(CH2)2CH2NHTf)]2 with ethylenediamine then treatment with silver carbonate and triethylamine, followed by addition of NH4PF6 and precipitation of the product by concentration and cooling. All complexes are soluble in water (≥5 mM) and stable in the presence of NaCl (100 mM). All complexes were characterized by ^1H, ^13C and ^19F NMR spectroscopy, high resolution mass spectrometry and elemental analysis.
# During these studies it was observed that for 1–3 arene-ruthenium cleavage began to occur on standing of the NMR solution for even relatively short periods of time (>1 h) (Figures S12–S14).
# [5] = test system: HT-29 cell line; assay: MTT cytotoxicity assay; type: cell-based, human; conditions: HT-29, concentrations up to 100 µM, 72 h
# Method: Having established the ability of 4 to coordinate to biologically relevant ligands in a pH-dependent manner we evaluated the cytotoxicity of 4 (and 6 as a control unable to form an intramolecular chelate) against the HT-29 cell line using the MTT assay. In light of the potential non-covalent interaction of 4 with protein as described earlier these assays were performed for both 4 and 6 using media containing 10% and 1% fetal calf serum to assess the effect of serum concentration on cytotoxicity. […] It is clear that while 6 is readily able to coordinate to 5′-GMP and L-histidine, and presumably forms biomacromolecular adducts in cell culture experiments, the nature and/or level of adducts formed is not detrimental to HT-29 cell viability. The ability of 4 to form biomacromolecular adducts in cell culture conditions will be less than that of 6 due to substantial intramolecular sulfonamide ligation under these pH conditions. […]
# HT-29 (human colon adenocarcinoma) cells were counted and the concentration adjusted to 3 × 10^4 cells/.mL 100 µL of the cell suspension was dispensed into the wells of a 96 well plate. […] The results were read on a plate reader (Biotek ELX800 Universal Microplate Reader) at 570 nm. The viability of the cells is expressed as % of cell survival of each dilution against the “cells only” control taken as 100% survival. […]
# [6] = test system: 5′-GMP; assay: NMR binding study with the model ligand 5′-GMP; conditions: 1 eq. 5′-GMP, 2.46 mM complex, phosphate buffer 0.2 M, 310 K, 0.1 M NaCl
# Method: (§1) The coordination of a metallodrug, via the metal ion, to biomacromolecular targets is a major mechanism by which biological activity is exerted in many of these complexes. To evaluate the ability of intramolecular sulfonamide ligation to regulate the availability of a coordination site at the ruthenium ion in this family of complexes, and therefore control ligation of endogenous ligands to the complex, binding studies were performed between 4 (and the control compound 6) and the model ligands L-histidine and 5′-GMP. 4 and 6 were incubated with 1 eq. of 5′-GMP or L-histidine (2.46 mM complex, phosphate buffer (0.2 M), 310 K, 0.1 M NaCl) for 144 h at pD values of 7.5 and 6.5 in each case. Incubations were monitored by ^1H and ^19F NMR. […] The degree of L-histidine coordination was not able to be quantified using ^1H NMR due to hydrogen-deuterium exchange which occurs at the histidine C2 proton and low intensity and overlapping peaks, but was more pronounced at pD 7.5 than pD 6.5. […]
# (§2) The reactivity of 4 and 6 towards 5′-GMP/L-histidine was assessed by mixing stock solutions of the complex and ligand in phosphate buffer (both in D2O, 0.1 M NaCl) to yield 1:1 solutions with each component present at a concentration of 2.46 mM (200 mM buffer concentration, 0.1 M NaCl). […] Samples were incubated at 310 K and monitored using ^1H and ^19F NMR. […]
# [7] = NMR binding study with the model ligand L-histidine; conditions: 1 eq. L-histidine, 2.46 mM complex, phosphate buffer 0.2 M, 310 K, 0.1 M NaCl
# Method: as §1, §2
# [8] = Conversion of chelate form to open form in citrate/phosphate buffer, 19F NMR; type: physicochemical; conditions: 310 K
# Method: To gain further insight into the reactivity of 4 the conversion of the chelate form to open form of the complex was probed in three different citrate/phosphate buffer solutions at 310 K (Figure 9). Aqueous solutions of 4 at pD 7.61 (where the chelate form of the complex exists exclusively) were diluted into citrate/phosphate buffer to yield solutions at pD 4.12, 4.91 and 5.96 (2.46 mM complex, 0.1 M NaCl). The conversion of the chelate form to the open form was monitored by ^19F NMR spectroscopy over 16 h. Under the most acidic conditions (pD 4.12) equilibrium was reached within the 16 h experiment duration, with 93% of 4 converting to the open form.
# The conversion of the chelate-form of 4 to the activated open-form was investigated by dilution of a stock solution of 4 (D2O, 0.1 M NaCl) into citrate/phosphate buffer solutions (D2O, 0.1 M NaCl) at pD 4.12, 4.91 and 5.96 to yield solutions at a final complex concentration of 2.46 mM. The samples were maintained at 310 K within the NMR spectrometer and ^19F NMR spectra were recorded every 15 min for 16 h. The ratio of the –CF3 signals corresponding to the open- and chelate-forms of the complex were determined to allow a plot of % open-form versus time. The fitting of the equation y = C + A(1−e^−kx) (C-offset from zero; A-amplitude of the curve) to each set of experimental data yielded the half-life for the fraction of the chelate-form of 4 which is converted to the open-form.
# [9] = molecular target: bovine serum albumin (Bos taurus, UniProt P02769); assay: Incubation with bovine serum albumin monitored by 1H and 19F NMR; conditions: 72 h, 2.46 mM complex, 0.5 mM BSA, 310 K, pD 7.4
# Chain of bovine serum albumin (P02769 25-607): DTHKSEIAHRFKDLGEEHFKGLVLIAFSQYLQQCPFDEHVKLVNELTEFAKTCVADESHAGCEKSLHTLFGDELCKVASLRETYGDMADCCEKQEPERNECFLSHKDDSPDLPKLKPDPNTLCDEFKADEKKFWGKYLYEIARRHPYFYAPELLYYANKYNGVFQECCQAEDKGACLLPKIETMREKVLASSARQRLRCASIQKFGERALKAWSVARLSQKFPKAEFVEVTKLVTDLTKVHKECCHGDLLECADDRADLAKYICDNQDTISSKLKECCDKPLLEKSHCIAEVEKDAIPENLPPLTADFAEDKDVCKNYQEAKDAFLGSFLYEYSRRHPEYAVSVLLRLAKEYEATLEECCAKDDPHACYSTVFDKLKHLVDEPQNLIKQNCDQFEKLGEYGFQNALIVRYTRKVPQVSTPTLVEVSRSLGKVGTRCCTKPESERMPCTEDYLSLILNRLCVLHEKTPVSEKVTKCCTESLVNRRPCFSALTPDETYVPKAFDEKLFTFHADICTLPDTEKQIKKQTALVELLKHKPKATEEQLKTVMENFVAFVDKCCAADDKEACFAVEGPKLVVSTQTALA
compound,measurement,setting,value
N[C@@H](Cc1c[nH]cn1)C(=O)O [L-histidine],side chain pKa,[1]; imidazole,6.07
[Ru(η^6-C6H5CH2CH2NHTr)(C2O4)(H2O)],Apparent pKa for the Analogous [Ru(η^6-C6H5CH2CH2NHR)(C2O4)(H2O)] Complex,"[2]; R = Tr, 295 K",5.75
[Ru(η^6-C6H5CH2CH2NHTf)(C2O4)(H2O)],Apparent pKa for the Analogous [Ru(η^6-C6H5CH2CH2NHR)(C2O4)(H2O)] Complex,[3],4.05 ^‡
[Ru(η^6-C6H5(CH2)3CH2NHTf)(en)(Cl)]PF6 [Complex 5],Apparent pKa,[2],8.00
same,Arene loss on standing of the NMR solution,[4],not observed
[Ru(η^6-C6H5CH2CH2NHMs)(C2O4)(H2O)],Apparent pKa for the Analogous [Ru(η^6-C6H5CH2CH2NHR)(C2O4)(H2O)] Complex,[3],6.65 ^‡
[Ru(η^6:κ^1-C6H5(CH2)2CH2NTf)(en)]PF6 [Complex 4],Inhibition of cell growth (MTT),[5]; media with 1% fetal calf serum,no significant inhibition of cell growth
same,Inhibition of cell growth (MTT),[5]; media with 10% fetal calf serum,no significant inhibition of cell growth
same,5′-GMP coordinated to the complex,"[6]; pD 6.5, 144 h",16 ± 1.6%
same,5′-GMP coordinated to the complex,"[6]; pD 7.5, 144 h",no coordination
same,Coordination of L-histidine to the complex,"[7]; pD 6.5, 144 h",lack of reactivity; also recorded: No coordination
same,Coordination of L-histidine to the complex,"[7]; pD 7.5, 144 h",lack of reactivity; also recorded: no coordination
same,Apparent pKa,[2],4.82
same,Arene loss on standing of the NMR solution,[4],not observed
same,Fraction converted to the open form at equilibrium,"[8]; pD 4.12, equilibrium reached within 16 h, 2.46 mM complex, 0.1 M NaCl",93%
same,Open form present at equilibrium (from data fitting),"[8]; pD 4.91, equilibrium not reached within 16 h",61%
same,Open form present at equilibrium (from data fitting),"[8]; pD 5.96, equilibrium not reached within 16 h",24%
same,Non-covalent interaction with bovine serum albumin (1H NMR signals broader and slightly shifted),[9],non-covalent interactions between 4 and the protein may be occurring
same,Reactivity (covalent interaction) towards bovine serum albumin,"[9]; phosphate buffer 0.2 M, 0.1 M NaCl",lack of reactivity; also recorded: no covalent interaction
"Nc1nc2c(ncn2[C@@H]2O[C@H](COP(=O)([O-])[O-])[C@@H](O)[C@H]2O)c(=O)[nH]1.[Na+].[Na+] [5′-GMP, guanosine 5′-monophosphate disodium salt]",pKa of the N7 position,[1],2.57
"cis-[PtCl(Me2N(CH2)2PPh2-N,P)(Me2N(CH2)2PPh2-P)]Cl","pKa (ring-open/ring-closed equilibrium, pH titrations)",[1],6.9
